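Test compounds were applied to cells in 96-well plates for 48 hours at 5 doses. GI50 marks 50% less growth.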 The source made the active and inactive calls. Cut-off read from the data, not from the text of the source: active = GI50 up to about 1.1 µM and inactive = higher.
Assays:
Test in all cases: NCI tumour cell line growth inhibition, 48 h
[1] = system: M19-MEL
[2] = system: HOP-18
[3] = system: LXFL 529
[4] = system: KM-20L2
[5] = system: DMS-273
[6] = system: DLD-1
[7] = system: SNB-78
[8] = system: RXF 631
[9] = system: XF498

Compound: COc1cccc(C(=O)O)c1Cc1cccc2ccccc12
- GI50 [1]: > 100 µM (inactive)
- GI50 [2]: > 100 µM (inactive)
- GI50 [3]: > 100 µM (inactive)
- GI50 [4]: > 100 µM (inactive)
- GI50 [5]: > 100 µM (inactive)
- GI50 [6]: > 100 µM (inactive)

Compound: CO[C@H](C(=O)O[C@H]1C(=O)N2CC[C@@H]3CCC[C@H]1C32C)c1ccccc1 (stereo not given in full)
- GI50 [1]: > 100 µM (inactive)
- GI50 [7]: > 100 µM (inactive)
- GI50 [3]: > 100 µM (inactive)
- GI50 [4]: > 100 µM (inactive)
- GI50 [6]: > 100 µM (inactive)

Compound: Nc1cccc2c1C(=O)c1cccc(N)c1C2=O
- GI50 [1]: > 100 µM (inactive)
- GI50 [7]: > 100 µM (inactive)
- GI50 [3]: > 100 µM (inactive)
- GI50 [4]: > 100 µM (inactive)
- GI50 [8]: > 100 µM (inactive)
- GI50 [5]: > 100 µM (inactive)
- GI50 [9]: 19.4 µM (inactive)
- GI50 [6]: > 100 µM (inactive)

Compound: CN(C)CCNC(=O)c1cccc2ccc(-c3ccncc3)nc12
- GI50 [1]: 1.89 µM (inactive)
- GI50 [2]: 3.47 µM (inactive)
- GI50 [7]: 7.24 µM (inactive)
- GI50 [5]: 1.1 µM (active)
- GI50 [6]: 2.48 µM (inactive)

Compound: O=C(/C=C/c1ccc[nH]1)c1ccccc1
- GI50 [1]: > 100 µM (inactive)
- GI50 [2]: 40.2 µM (inactive)
- GI50 [7]: > 100 µM (inactive)
- GI50 [3]: > 100 µM (inactive)
- GI50 [4]: > 100 µM (inactive)
- GI50 [5]: > 100 µM (inactive)
- GI50 [6]: > 100 µM (inactive)

Compound: N=C(N)N/N=C/c1c[nH]c2ccccc12
- GI50 [2]: > 100 µM (inactive)
- GI50 [7]: > 100 µM (inactive)
- GI50 [3]: > 100 µM (inactive)
- GI50 [4]: > 100 µM (inactive)
- GI50 [5]: > 100 µM (inactive)
- GI50 [6]: > 100 µM (inactive)

Compound: CC(=O)NC(CCCN(Cc1ccccc1)C(=O)NCCCl)C(=O)NCc1ccccc1 (stereo not given)
- GI50 [1]: > 100 µM (inactive)
- GI50 [2]: > 100 µM (inactive)
- GI50 [7]: > 100 µM (inactive)
- GI50 [3]: > 100 µM (inactive)
- GI50 [4]: > 100 µM (inactive)
- GI50 [5]: > 100 µM (inactive)
- GI50 [6]: > 100 µM (inactive)

Compound: Oc1cc2cc(-c3ccccc3)[nH]c2c2ccccc12
- GI50 [1]: 15.5 µM (inactive)
- GI50 [2]: 32.7 µM (inactive)
- GI50 [7]: 54.6 µM (inactive)
- GI50 [3]: 24.5 µM (inactive)
- GI50 [4]: > 96.2 µM (inactive)
- GI50 [8]: 22.7 µM (inactive)
- GI50 [5]: 0.592 µM (active)
- GI50 [9]: 1.63 µM (inactive)
- GI50 [6]: 32 µM (inactive)

Compound: Nc1ccc(C(=O)NN2C(=O)C(Cl)C2c2ccc([N+](=O)[O-])cc2)cc1 (stereo not given)
- GI50 [1]: 14.6 µM (inactive)
- GI50 [7]: 22.6 µM (inactive)
- GI50 [3]: 4.86 µM (inactive)
- GI50 [4]: 13.4 µM (inactive)
- GI50 [5]: 5.62 µM (inactive)
- GI50 [6]: 9.79 µM (inactive)

Compound: Cc1nc(-c2nc(C)c(C(=O)/C=C/c3ccc(N(C)C)cc3)s2)sc1C(=O)/C=C/c1ccc(N(C)C)cc1
- GI50 [1]: 51.1 µM (inactive)
- GI50 [3]: 34.8 µM (inactive)
- GI50 [4]: > 100 µM (inactive)
- GI50 [8]: > 100 µM (inactive)
- GI50 [5]: 39.1 µM (inactive)
- GI50 [9]: 23.4 µM (inactive)
- GI50 [6]: 29.5 µM (inactive)

Compound: O=c1c2cc(Br)ccc2n(C2OC(CO)C(O)C(O)C2O)c(=S)n1-c1ccccc1 (stereo not given)
- GI50 [1]: > 100 µM (inactive)
- GI50 [2]: > 100 µM (inactive)
- GI50 [7]: > 100 µM (inactive)
- GI50 [3]: 74.3 µM (inactive)
- GI50 [4]: > 100 µM (inactive)
- GI50 [9]: 50.5 µM (inactive)
- GI50 [6]: > 100 µM (inactive)

Compound: CC(C)(C)C1CCC2(CC1)CCN(CCCN1CCOCC1)CC2
- GI50 [1]: 12.5 µM (inactive)
- GI50 [7]: 38.5 µM (inactive)
- GI50 [3]: 8.36 µM (inactive)
- GI50 [4]: 2.18 µM (inactive)
- GI50 [8]: 14.4 µM (inactive)
- GI50 [5]: 19.3 µM (inactive)
- GI50 [6]: 24.4 µM (inactive)

Compound: CCCc1c2c([nH]c(=O)c1C)C(=O)c1[nH]c(=O)c(C)c(CCC)c1C2=O
- GI50 [1]: 2.21 µM (inactive)
- GI50 [2]: > 100 µM (inactive)
- GI50 [7]: 30.3 µM (inactive)
- GI50 [3]: 63.2 µM (inactive)

Compound: Cc1c(C(=O)Nc2ccc(Cl)c(C(F)(F)F)c2)oc2cc(O)ccc2/c1=N\NC(N)=S
- GI50 [1]: > 100 µM (inactive)
- GI50 [2]: > 100 µM (inactive)
- GI50 [7]: > 100 µM (inactive)
- GI50 [3]: > 100 µM (inactive)
- GI50 [4]: > 100 µM (inactive)
- GI50 [5]: > 100 µM (inactive)
- GI50 [9]: > 100 µM (inactive)
- GI50 [6]: > 100 µM (inactive)

Compound: COc1cc(/C=N\c2ccc(C(C)C)cc2)cc(OC)c1OC
- GI50 [1]: > 92 µM (inactive)
- GI50 [2]: > 100 µM (inactive)
- GI50 [7]: > 100 µM (inactive)
- GI50 [3]: 99.5 µM (inactive)
- GI50 [4]: > 100 µM (inactive)
- GI50 [5]: > 72.4 µM (inactive)
- GI50 [9]: > 100 µM (inactive)
- GI50 [6]: > 100 µM (inactive)
